These results are taken from BindingDB's records for doi:10.7270/Q2R78CMH (Sanford-Burnham Center for Chemical Genomics, 2008).

In the test the target is T1, Bcl-2-like protein 10 (Homo sapiens, UniProt Q9HD36).
T1 sequence (Q9HD36 whole entry): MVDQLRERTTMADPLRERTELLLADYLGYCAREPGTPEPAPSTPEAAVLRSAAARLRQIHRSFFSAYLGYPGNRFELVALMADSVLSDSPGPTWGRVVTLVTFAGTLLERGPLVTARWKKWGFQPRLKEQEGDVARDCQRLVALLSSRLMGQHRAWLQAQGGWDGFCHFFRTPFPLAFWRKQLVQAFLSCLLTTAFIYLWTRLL
Briefly: EC50 profiling of BCL2L10 inhibition in a biochemical TR3-derived FP format (AID 1243).

Structures are written as SMILES.

Consider `C=c1c(C#N)c2[nH]c(N)c(C#N)c(C)c-2c1=Cc1ccc(-c2ccc(C(=O)O)c(Cl)c2)o1`, for which the EC50 was 1.65 µM.
The result for `O=C(O)c1cccc(-c2ccc(CN=Nc3ccc([N+](=O)[O-])cn3)o2)c1` reads 9.64 µM; that for `Clc1ccc(C2CC(c3ccccc3)=Nc3ncnn32)cc1` (stereo unspecified) [7-(4-chlorophenyl)-5-phenyl-1,7-dihydro-[1,2,4]triazolo[1,5-a]pyrimidine], 14.2 µM; that for `COc1ccccc1NC(=O)C1=C(C)N=C(SCC(=O)c2ccc(Br)cc2)C(C#N)C1c1ccco1` (stereo unspecified) [BIM-0025022.P001], 6.24 µM.
The compound `O=C1c2ccccc2C(O)C12N=Nc1n[nH]c(=S)n1N2` (stereo unspecified) [BIM-0026580.P001] yielded an EC50 of 23.8 µM.
In the case of `O=C1C=CC(=O)C(C(C=NCc2ccccc2)[N+](=O)[O-])=C1` (stereo unspecified) [BIM-0048185.P001] it was 5.7 µM.

Broadly, the EC50 is the concentration at which the effect is half-maximal. A low value points to a more potent agent.
